We go through 29 compounds from patent US9376429B2, “Sodium channel blockers, preparation method thereof and use thereof” (Daewoong Pharmaceutical Co., Ltd., priority 2012, dated 2016).

The target in this assay is T1, sodium ion channel (Nav1.7) (Homo sapiens, UniProt Q15858).
T1 construct: host or cells: HEK293
The assay is described as follows: Blocking effect against sodium ion channel (Nav1.7), IonFlux16 auto patch clamp, hNav1.7 HEK293 cells. In kind it is cell-based. The note with it: peak current after 50 seconds treatment, eight concentrations. As to the method:
In order to measure the activities of the inventive compounds as antagonists, an experiment on a blocking effect against the sodium ion channel (Nav1.7) was carried out as follows.
The hNav1.7 HEK293 cell line used was a cell line having a human sodium ion channel 1.7 gene (type IX voltage-gated sodium channel alpha subunit) in human embryonic kidney (HEK) 293 cells and was purchased from Millipore. The medium used was prepared by adding 1% 100×NEAA and 10% heat inactivated FBS to DMEM F-12 and adding 1% P/S as an antibiotic thereto. G-418 as a […] was added during subculture, and the hNav1.7 HEK293 cells were cultured to a confluence of about 80% in a T75 flask in a 5% CO2 incubator at 37° C. for 2 or 3 days and detached from the flask by treatment with 0.25% trypsin solution. Then, the cells were collected by centrifugation and used in the experiment.
The compounds prepared in the Examples of the present invention were dissolved in dimethyl sulfoxide (DMSO) and used in the experiment. 90 mM and 10 mM DMSO stock solutions were prepared from each of the compounds and diluted in an extracellular solution (4 mM KCl, 138 mM NaCl, 1 mM MgCl2, 1.8 mM CaCl2, 5.6 mM glucose, 10 mM HEPES, pH 7.45) at various concentrations so that the final concentration of each compound in DMSO was 0.3% or less.
To measure the sodium ion channel blocking effect, an IonFlux16 Auto patch clamp system (Fluxion, Inc.) and a plate for exclusive use were used. The cells were distributed in an extracellular solution (4 mM KCl, 138 mM NaCl, 1 mM MgCl2, 1.8 mM CaCl2, 5.6 mM glucose, 10 mM HEPES, pH 7.45), and then dispensed in the specified region of the plate, and each of the prepared compound samples was diluted at various concentrations, and then dispensed in the specified region of the plate.
Specifically, eight concentrations per compound were set, and percent inhibition was determined by calculating the percentage of inhibition of the peak current, generated after treating the cells with each concentration of the compound for 50 seconds, relative to the peak current generated before treatment with the compound, and the IC50 value was calculated using the Sigma plot program. In Table 2 below, the percent inhibition of Nav1.7 is rated as follows: […]
A general note: In patch-clamp work, channel activity is measured electrically.

A value given as a limit tells only on which side of the number the result lay.

The term IC50 denotes the concentration at which inhibition is half-maximal. A high value points to lower potency.

T1 sequence (Q15858 whole entry): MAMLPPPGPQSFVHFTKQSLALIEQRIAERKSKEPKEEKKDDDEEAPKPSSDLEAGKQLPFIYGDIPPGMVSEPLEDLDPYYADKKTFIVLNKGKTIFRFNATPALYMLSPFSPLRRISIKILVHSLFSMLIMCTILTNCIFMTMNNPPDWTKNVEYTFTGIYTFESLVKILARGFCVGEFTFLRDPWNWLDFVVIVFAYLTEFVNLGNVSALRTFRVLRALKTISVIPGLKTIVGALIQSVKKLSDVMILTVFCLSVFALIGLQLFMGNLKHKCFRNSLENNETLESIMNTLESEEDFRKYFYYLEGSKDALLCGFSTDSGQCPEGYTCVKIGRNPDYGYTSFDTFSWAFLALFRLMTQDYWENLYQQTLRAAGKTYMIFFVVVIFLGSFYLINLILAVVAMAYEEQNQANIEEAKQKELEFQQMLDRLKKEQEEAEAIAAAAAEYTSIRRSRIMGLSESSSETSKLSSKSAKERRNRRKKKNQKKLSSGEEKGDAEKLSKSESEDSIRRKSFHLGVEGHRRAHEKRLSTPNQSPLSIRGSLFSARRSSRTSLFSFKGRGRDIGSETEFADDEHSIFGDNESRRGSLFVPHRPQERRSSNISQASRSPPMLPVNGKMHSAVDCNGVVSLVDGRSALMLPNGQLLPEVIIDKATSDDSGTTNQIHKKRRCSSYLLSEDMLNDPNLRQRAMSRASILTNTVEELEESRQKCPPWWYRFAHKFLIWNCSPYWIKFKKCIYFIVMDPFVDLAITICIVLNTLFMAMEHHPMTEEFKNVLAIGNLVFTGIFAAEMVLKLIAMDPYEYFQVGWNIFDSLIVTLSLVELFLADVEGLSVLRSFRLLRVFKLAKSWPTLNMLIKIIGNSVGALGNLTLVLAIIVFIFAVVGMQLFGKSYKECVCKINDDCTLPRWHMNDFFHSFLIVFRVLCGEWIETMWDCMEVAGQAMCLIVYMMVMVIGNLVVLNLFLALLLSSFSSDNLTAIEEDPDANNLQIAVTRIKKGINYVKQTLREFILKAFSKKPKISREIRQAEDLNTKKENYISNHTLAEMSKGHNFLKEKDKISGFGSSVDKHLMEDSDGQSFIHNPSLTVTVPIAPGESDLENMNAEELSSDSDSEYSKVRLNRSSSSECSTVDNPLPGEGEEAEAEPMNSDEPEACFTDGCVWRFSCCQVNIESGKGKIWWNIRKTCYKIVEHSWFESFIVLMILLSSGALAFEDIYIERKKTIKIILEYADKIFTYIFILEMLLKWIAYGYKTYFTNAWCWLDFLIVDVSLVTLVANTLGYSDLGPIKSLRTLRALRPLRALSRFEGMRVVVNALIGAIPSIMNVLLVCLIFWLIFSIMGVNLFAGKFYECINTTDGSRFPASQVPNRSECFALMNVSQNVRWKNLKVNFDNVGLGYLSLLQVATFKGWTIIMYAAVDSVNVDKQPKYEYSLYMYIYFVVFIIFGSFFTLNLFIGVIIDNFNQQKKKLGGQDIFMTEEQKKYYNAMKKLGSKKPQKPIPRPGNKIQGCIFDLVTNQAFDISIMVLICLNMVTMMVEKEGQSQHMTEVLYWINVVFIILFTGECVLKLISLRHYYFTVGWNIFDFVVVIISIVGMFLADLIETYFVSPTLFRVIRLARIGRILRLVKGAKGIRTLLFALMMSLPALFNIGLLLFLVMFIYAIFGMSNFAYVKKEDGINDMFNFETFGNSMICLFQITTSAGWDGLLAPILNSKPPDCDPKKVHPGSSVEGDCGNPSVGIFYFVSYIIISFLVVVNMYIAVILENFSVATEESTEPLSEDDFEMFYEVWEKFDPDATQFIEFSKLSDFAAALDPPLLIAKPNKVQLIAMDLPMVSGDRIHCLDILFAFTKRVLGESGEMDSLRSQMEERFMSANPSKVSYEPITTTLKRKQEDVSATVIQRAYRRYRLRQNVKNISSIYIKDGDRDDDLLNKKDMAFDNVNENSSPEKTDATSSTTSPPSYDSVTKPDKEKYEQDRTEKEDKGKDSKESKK

Compound `N#Cc1cc(S(=O)(=O)Nc2nccs2)ccc1Oc1cnc(-c2ccccc2)cc1-c1ccoc1` [Example 1, 3-cyano-4-(4-(furan-3-yl)-6-phenylpyridin-3-yloxy)-N-(thiazol-2-yl)benzenesolfonamide] gave an IC50 of under 50 nM.

The compound `Cn1nccc1-c1cc(-c2ccccc2)ncc1Oc1ccc(S(=O)(=O)Nc2nccs2)cc1C#N` [Example 2] returned a concentration for half-maximal inhibition (IC50) of over 100 nM.

For the compound `N#Cc1cc(S(=O)(=O)Nc2ncns2)ccc1Oc1cnc(-c2ccccc2)cc1-c1ccoc1` [Example 3, 3-cyano-4-(4-(furan-3-yl)-6-phenylpyridin-3-yloxy)-N-(1,2,4-thiadiazol-5-yl)benzenesulfonamide], the IC50 was under 50 nM.

The compound `Cn1nccc1-c1cc(-c2ccccc2)ncc1Oc1ccc(S(=O)(=O)Nc2ncns2)cc1C#N` [Example 4, 3-cyano-4-((4-(1-methyl-1H-pyrazol-5-yl)-6-phenylpyridin-3-yl)oxy)-N-(1,2,4-thiadiazol-5-yl)benzenesulfonamide] came in with a 50% inhibitory concentration (IC50) of 51 to 100 nM.

`N#Cc1cc(S(=O)(=O)Nc2nccs2)ccc1Oc1cnc(-c2cccc(F)c2)cc1-c1ccoc1` [Example 5, 3-cyano-4-(6-(3-fluorophenyl)-4-(furan-3-yl)pyridin-3-yloxy)-N-(thiazol-2-yl)benzenesulfonamide] showed an IC50 of under 50 nM.

For `N#Cc1cc(S(=O)(=O)Nc2nccs2)ccc1Oc1cnc(-c2ccccc2F)cc1-c1ccoc1` [Example 6, 3-cyano-4-(6-(2-fluorophenyl)-4-(furan-3-yl)pyridin-3-yloxy)-N-(thiazol-2-yl)benzenesulfonamide], the half-inhibitory concentration (IC50) was over 100 nM.

As for `N#Cc1cc(S(=O)(=O)Nc2nccs2)ccc1Oc1cnc(-c2ccc(F)cc2)cc1-c1ccoc1` [Example 7, 3-cyano-4-(6-(4-fluorophenyl)-4-(furan-3-yl)pyridin-3-yloxy)-N-(thiazol-2-yl)benzenesulfonamide], the half-maximal inhibitory concentration (IC50) was in the range of 51 to 100 nM.

Regarding `N#Cc1cc(S(=O)(=O)Nc2nccs2)ccc1Oc1cnc(-c2cccc(C(F)(F)F)c2)cc1-c1ccoc1` [Example 8, 3-cyano-4-(4-(furan-3-yl)-6-(3-(trifluoromethyl)phenyl)pyridin-3-yloxy)-N-(thiazol-2-yl)benzenesulfonamide], the half-inhibitory concentration (IC50) is over 100 nM.

Take `N#Cc1cc(S(=O)(=O)Nc2nccs2)ccc1Oc1cnc(-c2ccnc(F)c2)cc1-c1ccoc1` [Example 9, 3-cyano-4-(2′-fluoro-4-(furan-3-yl)-2,4′-bipyridin-5-yloxy)-N-(thiazol-2-yl)benzenesulfonamide]: the IC50 was in the range of 51 to 100 nM.

Compound `N#Cc1cc(S(=O)(=O)Nc2nccs2)ccc1Oc1cnc(-c2cccnc2F)cc1-c1ccoc1` [Example 10, 3-cyano-4-(2′-fluoro-4-(furan-3-yl)-2,3′-bipyridin-5-yloxy)-N-(thiazol-2-yl)benzenesulfonamide] displayed an IC50 of 51 to 100 nM.

`N#Cc1cc(S(=O)(=O)Nc2nccs2)ccc1Oc1cnc(-c2ccc(F)nc2)cc1-c1ccoc1` [Example 11, 3-cyano-4-(6′-fluoro-4-(furan-3-yl)-2,3′-bipyridin-5-yloxy)-N-(thiazol-2-yl)benzenesulfonamide] returned a half-maximal inhibitory concentration (IC50) of 51 to 100 nM.

As for `N#Cc1cc(S(=O)(=O)Nc2nccs2)ccc1Oc1cnc(-c2ccc(F)nc2F)cc1-c1ccoc1` [Example 12, 3-cyano-4-(2′,6′-difluoro-4-(furan-3-yl)-2,3′-bipyridin-5-yloxy)-N-(thiazol-2-yl)benzenesulfonamide], the IC50 is under 50 nM.

In turn, `N#Cc1cc(S(=O)(=O)Nc2nccs2)ccc1Oc1cnc(-c2cccnc2)cc1-c1ccoc1` [Example 13, 3-cyano-4-(4-(furan-3-yl)-2,3′-bipyridin-5-yloxy)-N-(thiazol-2-yl)benzenesulfonamide] registered a concentration for half-maximal inhibition (IC50) of over 100 nM.

Consider `N#Cc1cc(S(=O)(=O)Nc2nccs2)ccc1Oc1cnc(-c2ccncc2)cc1-c1ccoc1` [Example 14, 3-cyano-4-(4-(furan-3-yl)-2,4′-bipyridin-5-yloxy)-N-(thiazol-2-yl)benzenesulfonamide], for which the concentration for half-maximal inhibition (IC50) was over 100 nM.

On to `N#Cc1cc(S(=O)(=O)Nc2nccs2)ccc1Oc1cnc(-c2cncnc2)cc1-c1ccoc1` [Example 15, 3-cyano-4-(4-(furan-3-yl)-6-(pyrimidin-5-yl)pyridin-3-yloxy)-N-(thiazol-2-yl)benzenesulfonamide], for which the IC50 is over 100 nM.

`N#Cc1cc(S(=O)(=O)Nc2nccs2)ccc1Oc1cnc(-c2ccoc2)cc1-c1ccoc1` [Example 16, 3-cyano-4-((4,6-di(furan-3-yl)pyridin-3-yl)oxy)-N-(thiazol-2-yl)benzenesulfonamide]: the 50% inhibitory concentration (IC50) is under 50 nM.

In turn, `O=S(=O)(Nc1nccs1)c1ccc(Oc2cnc(-c3ccoc3)cc2-c2ccoc2)c(F)c1` [Example 17, 4-((4,6-di(furan-3-yl)pyridin-3-yl)oxy)-3-fluoro-N-(thiazol-2-yl)benzenesulfonamide] gave an IC50 of over 100 nM.

`Cn1nccc1-c1cc(-c2cccnc2F)ncc1Oc1ccc(S(=O)(=O)Nc2nccs2)cc1C#N` [Example 18, 3-cyano-4-((2′-fluoro-4-(1-methyl-1H-pyrazol-5-yl)-[2,3′-bipyridin]-5-yl)oxy)-N-(thiazol-2-yl)benzenesulfonamide] gave an IC50 of over 100 nM.

Consider `Cn1nccc1-c1cc(-c2ccc(F)nc2)ncc1Oc1ccc(S(=O)(=O)Nc2nccs2)cc1C#N` [Example 19, 3-cyano-4-((6′-fluoro-4-(1-methyl-1H-pyrazol-5-yl)-[2,3′-bipyridin]-5-yl)oxy)-N-(thiazol-2-yl)benzenesulfonamide], for which the half-inhibitory concentration (IC50) was over 100 nM.

On to `N#Cc1cc(S(=O)(=O)Nc2nccs2)ccc1Oc1cnc(-c2ccsc2)cc1-c1ccoc1` [Example 20, 3-cyano-4-((4-(furan-3-yl)-6-(thiophen-3-yl)pyridin-3-yl)oxy)-N-(thiazol-2-yl)benzenesulfonamide], for which the concentration for half-maximal inhibition (IC50) was over 100 nM.

`Cn1nccc1-c1cc(-c2cccnc2)ncc1Oc1ccc(S(=O)(=O)Nc2nccs2)cc1F` [Example 21, 3-fluoro-4-((4-(1-methyl-1H-pyrazol-5-yl)-[2,3′-bipyridin]-5-yl)oxy)-N-(thiazol-2-yl)benzenesulfonamide] returned a concentration for half-maximal inhibition (IC50) of over 100 nM.

The compound `Cn1nccc1-c1cc(-c2ccsc2)ncc1Oc1ccc(S(=O)(=O)Nc2nccs2)cc1F` [Example 22, 3-fluoro-4-((4-(1-methyl-1H-pyrazol-5-yl)-6-(thiophen-3-yl)pyridin-3-yl)oxy)-N-(thiazol-2-yl)benzenesulfonamide] returned a half-maximal inhibitory concentration (IC50) of 51 to 100 nM.

In turn, `Cn1nccc1-c1cc(-c2ccc(F)cc2)ncc1Oc1ccc(S(=O)(=O)Nc2nccs2)cc1C#N` [Example 23, 3-cyano-4-((6-(4-fluorophenyl)-4-(1-methyl-1H-pyrazol-5-yl)pyridin-3-yl)oxy)-N-(thiazol-2-yl)benzenesulfonamide] yielded an IC50 of over 100 nM.

In the case of `Cn1nccc1-c1cc(-c2ccccc2F)ncc1Oc1ccc(S(=O)(=O)Nc2nccs2)cc1C#N` [Example 24, 3-cyano-4-((6-(2-fluorophenyl)-4-(1-methyl-1H-pyrazol-5-yl)pyridin-3-yl)oxy)-N-(thiazol-2-yl)benzenesulfonamide], the IC50 was over 100 nM.

In turn, `Cn1nccc1-c1cc(-c2ccoc2)ncc1Oc1ccc(S(=O)(=O)Nc2nccs2)cc1C#N` [Example 25, 3-cyano-4-((6-(furan-3-yl)-4-(1-methyl-1H-pyrazol-5-yl)pyridin-3-yl)oxy)-N-(thiazol-2-yl)benzenesulfonamide] registered a half-maximal inhibitory concentration (IC50) of over 100 nM.

With `Cn1nccc1-c1cc(-c2cccc(F)c2)ncc1Oc1ccc(S(=O)(=O)Nc2nccs2)cc1C#N` [Example 26, 3-cyano-4-((6-(3-fluorophenyl)-4-(1-methyl-1H-pyrazol-5-yl)pyridin-3-yl)oxy)-N-(thiazol-2-yl)benzenesulfonamide], the IC50 lay within 51 to 100 nM.

The compound `Cn1nccc1-c1cc(-c2ccnc(F)c2)ncc1Oc1ccc(S(=O)(=O)Nc2nccs2)cc1C#N` [Example 27, 3-cyano-4-((2′-fluoro-4-(1-methyl-1H-pyrazol-5-yl)-[2,4′-bipyridin]-5-yl)oxy)-N-(thiazol-2-yl)benzenesulfonamide] returned a 50% inhibitory concentration (IC50) of over 100 nM.

Turning to `O=S(=O)(Nc1nccs1)c1ccc(Oc2cnc(-c3ccoc3)cc2-c2ccoc2)cc1` [Example 28, 4-((4,6-di(furan-3-yl)pyridin-3-yl)oxy)-N-(thiazol-2-yl)benzenesulfonamide], the IC50 is over 100 nM.

Consider `N#Cc1cc(S(=O)(=O)Nc2nccs2)ccc1Oc1cnc(-c2ccccc2)cc1-c1cccnc1F` [Example 29, 3-cyano-4-((2-fluoro-6′-phenyl-[3,4′-bipyridin]-3′-yl)oxy)-N-(thiazol-2-yl)benzenesulfonamide], for which the half-inhibitory concentration (IC50) is over 100 nM.
